We go through one compound from patent publication US9896668B2, “Substrate-mimetic AKT inhibitor” (University of South Florida, priority 2006, dated 2018).

The assay concerns the target Akt1 (Homo sapiens, UniProt P31749). Briefly: in vitro inhibition of Akt, fluorescence polarization assay (IMAP Akt Assay Kit). The class given is biochemical. As to the method:
FIG. 9 is a table of investigations into the hydrophobic interactions between the GSK-3 residues central hydrophobic contacts and Akt. The values reported are an average of three independent binding curves using an IMAP™ Akt Assay Kit (Molecular Devices). Reactions were conducted in wells with 20.0 μL of 10 mM Tris-HCl (pH 7.2), 10 mM MgCl2, 0.1% BSA, 0.05% NaN3, 1 mM DTT, 100 nM 5FAM-[…]-COOH, 5 μM ATP, Akt1, and inhibitor. Reaction mixtures were incubated for 1 h at room temperature and then quenched with 60 μL of the IMAP-binding solution. The reactions were equilibrated for 1 h at room temperature then data points were collected and analyzed.
FIG. 14 is a table showing the optimization of C-terminal and central substituents for non-peptide inhibitors. ^a Reported values are an average of three independent-binding curves utilizing an IMAP® Akt Assay Kit (Molecular Devices). […] The reactions were equilibrated for 1 h at room temperature then data points were collected and analyzed. […]
Peptidomimetic inhibitors were generated directly from the minimal substrate sequence by systematic replacement of the non-critical amino acids and tested for in vitro inhibition of Akt using a fluorescence polarization assay system, shown in FIG. 3. […]

Square brackets hold non-standard residues; d marks the D form. Peptide text beside a SMILES is read from it. * marks the point of attachment. 4Abz = Nc1ccc(C(=O)O)cc1; NHBn = c1ccc(CN*)cc1

Akt1, sequence (P31749 whole entry): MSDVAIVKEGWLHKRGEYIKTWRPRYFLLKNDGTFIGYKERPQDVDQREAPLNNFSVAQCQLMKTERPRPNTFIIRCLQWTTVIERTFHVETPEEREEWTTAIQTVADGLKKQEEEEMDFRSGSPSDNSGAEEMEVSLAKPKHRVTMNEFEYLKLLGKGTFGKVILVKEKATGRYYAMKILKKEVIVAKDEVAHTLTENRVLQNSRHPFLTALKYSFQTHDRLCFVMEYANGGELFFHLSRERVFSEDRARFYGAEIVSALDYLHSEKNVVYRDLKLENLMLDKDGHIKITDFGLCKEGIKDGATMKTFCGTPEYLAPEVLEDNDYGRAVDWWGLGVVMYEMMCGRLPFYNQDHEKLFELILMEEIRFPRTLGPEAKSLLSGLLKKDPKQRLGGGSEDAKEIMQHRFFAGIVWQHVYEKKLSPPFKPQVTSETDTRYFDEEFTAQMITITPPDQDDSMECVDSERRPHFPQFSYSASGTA

Take `CC(=O)NCC(=O)N[C@@H](CCCNC(=N)N)C(=O)N1CCC[C@H]1C(=O)N[C@@H](CCCNC(=N)N)C(=O)Nc1ccc(C(=O)N[C@H](C(=O)N[C@@H](Cc2ccccc2)C(=O)NCc2ccccc2)C(C)C)cc1` [Inhibitor 10] (Ac-GRPR[4Abz]VF-NHBn): under “IMAP Akt Assay Kit, 5 μM ATP, 100 nM 5FAM-GRPRTSSFAEG-COOH, 1 h room temperature”, half-maximal inhibition (IC50) required 28 µM. The “fold increase in potency/activity versus parent inhibitor” value (in vitro Akt inhibition) worked out at 10 fold.
